{
  "source": "paper PMC12649549",
  "about": "“Sequence Permutation Generated Lysine and Tryptophan-Rich Antimicrobial Peptides with Enhanced Therapeutic Index” (Antibiotics, 2025)",
  "key": {"[1]": {"system": "human red blood cells (hRBCs)", "experiment": "Hemolytic activity assay", "type": "cell-based", "conditions": "1 h; for lysis of RBCs (hemolysis): 200 μM peptide, 100% = 1% Triton X-100", "experimental": "Equal volumes of peptides and hRBCs were mixed and incubated at 37 °C for 1 h. The supernatant was collected from the samples and tested for absorbance at 565 nm. Zero hemolysis (blank) was defined in PBS buffer, while 100% hemolysis was defined in 1% Triton X-100.\nHemolytic activity was evaluated by testing the ability of the peptides to cause lysis of human red blood cells (hRBCs), both in the presence and absence of the antimicrobial peptide. Blood samples were collected from healthy volunteers and treated with ethylenediaminetetraacetic acid (EDTA) to prevent coagulation. The hRBCs were then washed three times with phosphate-buffered saline (PBS) and pelleted by centrifugation at 800× g for 10 min. Next, the hRBCs were diluted in PBS to a final concentration of 10%. Peptides were serially diluted in PBS ranging from 400 µM to 3.13 µM, and an equal volume of 10% hRBC was added to each dilution. After incubation at 37 °C for 1 h, the supernatant was collected by centrifugation at 800× g for 10 min, and the absorbance at 565 nm was measured. Negative controls (PBS blank) and positive controls (1% Triton X-100 in PBS) were also included. The percentage of hemolysis was calculated using the following formula: %hemolysis = [(Asample − APBS)/(ATritonX-100 − APBS)] × 100%, where A is the absorbance under the specified conditions."}, "[2]": {"system": "HaCaT cells", "experiment": "Cell migration assay (in vitro wound healing assay)", "type": "cell-based, human", "conditions": "24 h", "experimental": "Figure 3 Cell migration rate (In Vitro wound healing rate) of HaCaT cells induced by the designed peptides. […] (Bar: 200 μm) Results are presented as means ± standard deviations (SD); n = 3 (three independent experiments), ns = no significant differences; ** p < 0.01; *** p < 0.001; **** p < 0.0001 compared with PBS (Negative Control) and 100 ng/mL EGF (Positive Control).\nFor the Cell Migration Assay (in vitro wound healing assay), HaCaT cells (4 × 10^4 cells) were seeded on each side of an ibidi culture insert (ibidi, Germany) in DMEM medium supplemented with 10% fetal bovine serum. The inserts were placed into a 24-well plate and incubated at 37 °C and 5% CO2 overnight. After removing the inserts, 1 mL of serum-free DMEM medium supplemented with different concentrations of peptide was added. Medium without peptide and with 100 ng/mL EGF (epidermal growth factor) were used as negative and positive controls, respectively. The migration area was imaged at 0 and 24 h using an inverted fluorescent microscope (Zeiss/Observer Z1) at 10× magnification, and the area was quantified using ImageJ software(version 1.54g). The repairing rate was calculated using the formula: Repairing Rate = (Area0h-Area24h)/Area0h, where 0 h and 24 h represent the time points at which the images were taken."}, "[3]": {"experiment": "Calcein dye leakage assay, POPC:LPS LUVs", "conditions": "POPC:LPS (12.5:1) LUVs, final peptide concentration 2 μg/mL; n = 3", "experimental": "(§1) Large unilamellar vesicles (LUVs) containing POPC:LPS (12.5:1, mol/mol) and POPC:cholesterol (2:1, mol/mol) were prepared using the extrusion method and an Avanti small-volume extrusion apparatus(Avanti Polar Lipids). To prepare the vesicles, phospholipids were dissolved in a chloroform/methanol mixture (4:1, v/v), evaporated using nitrogen gas, and suspended in PBS buffer. The lipid suspensions underwent six to eight cycles of freezing and thawing before being extruded ten times through a […] pore size polycarbonate filter, followed by ten times through a […] filter. Calcein-filled LUVs were also prepared by loading calcein-containing buffer (70 mM calcein and 10 mM Tris at pH 7.4) into a Sephadex G-75 column loaded with iso-osmotic buffer (100 mM sodium chloride and 10 mM Tris) to remove unencapsulated calcein. The phospholipid content of the vesicles was determined by assessing inorganic phosphate using the ammonium ferrothiocyanate method described by John Charles Marshall Stewart.\n(§2) Calcein leakage induced by peptides was measured using a Perkin-Elmer luminescence spectrofluorimeter with excitation and emission wavelengths of 496 and 515 nm, respectively. Calcein-entrapped LUVs were diluted to a concentration of 10 µM. The maximum degree of leakage was induced by 100 mg/mL Triton X-100.\n(§3) The degree of leakage induced by various peptide concentrations was calculated using the formula: Leakage % = ((F − F0)/(Fr − F0)) × 100%, where F0 and Fr represent the initial fluorescence intensities observed without peptide and after adding 100 mg/mL Triton X-100, respectively."}, "[4]": {"experiment": "Calcein dye leakage assay, POPC:Cholesterol LUVs", "conditions": "POPC:Cholesterol (2:1) LUVs, final peptide concentration 2 μg/mL; n = 3", "experimental": "as §1, §2, §3"}, "[5]": {"conditions": "hRBCs in PBS, 37 °C, absorbance 565 nm"}, "[6]": {"conditions": "hRBCs in PBS, 37 °C, absorbance 565 nm, 108.7 µg/mL(200 µM) used when no detectable hemolytic activity"}},
  "data": [
    {"substance": "Ac-AKKKKWRKWLKWL-NH2 [Peptide W5K10]", "values": [
      {"measurement": "lysis of RBCs (hemolysis)", "setting": "[1]; [5]", "value": "less than 10%"},
      {"measurement": "wound healing effect (cell migration rate)", "setting": "[2]; 4 µg/mL peptide", "value": "comparable wound healing effects"},
      {"measurement": "calcein leakage", "setting": "[3]", "value": 81, "unit": "%"}
    ]},
    {"substance": "Ac-KKKKWRKWLKWLA-NH2 [Peptide W5K11]", "values": [
      {"measurement": "lysis of RBCs (hemolysis)", "setting": "[1]; [5]", "value": "~27", "unit": "%"},
      {"measurement": "HC10 (concentration that induced 10% hemolysis of human red blood cells)", "setting": "[1]; phosphate buffer", "value": 71.0, "unit": "µg/mL"},
      {"measurement": "wound healing effect (cell migration rate)", "setting": "[2]; 4 µg/mL peptide", "value": "comparable wound healing effects"},
      {"measurement": "wound healing effect (cell migration rate)", "setting": "[2]; serum-free DMEM, 0.25 µg/mL to 4 µg/mL, compared to the negative control", "value": "superior wound healing effect even at the lowest concentration of 0.25 µg/mL"},
      {"measurement": "calcein leakage", "setting": "[3]", "value": 85, "unit": "%"},
      {"measurement": "calcein leakage", "setting": "[4]", "value": "above 60%"}
    ]},
    {"substance": "Ac-KKKWRKWLKWLAK-NH2 [Peptide W5K12]", "values": [
      {"measurement": "lysis of RBCs (hemolysis)", "setting": "[1]; [5]", "value": "~30", "unit": "%"},
      {"measurement": "HC10 (concentration that induced 10% hemolysis of human red blood cells)", "setting": "[1]; [6]", "value": 41.7, "unit": "µg/mL"},
      {"measurement": "calcein leakage", "setting": "[3]", "value": 82, "unit": "%"},
      {"measurement": "calcein leakage", "setting": "[4]", "value": "above 60%"}
    ]},
    {"substance": "Ac-KKWRKWLKWLAKK-NH2 [W5K/A9W]", "values": [
      {"measurement": "lysis of RBCs (hemolysis)", "setting": "[1]; [5]", "value": "approximately 35%"},
      {"measurement": "HC10 (concentration that induced 10% hemolysis of human red blood cells)", "setting": "[1]; [6]", "value": 30.0, "unit": "µg/mL"},
      {"measurement": "wound healing effect (cell migration rate)", "setting": "[2]; 4 µg/mL peptide", "value": "comparable wound healing effects"},
      {"measurement": "calcein leakage", "setting": "[3]", "value": 82, "unit": "%"},
      {"measurement": "calcein leakage", "setting": "[4]", "value": "above 60%"}
    ]},
    {"substance": "Ac-KWRKWLKWLAKKK-NH2 [Peptide W5K01]", "values": [
      {"measurement": "lysis of RBCs (hemolysis)", "setting": "[1]; [5]", "value": "~25", "unit": "%"},
      {"measurement": "HC10 (concentration that induced 10% hemolysis of human red blood cells)", "setting": "[1]; [6]", "value": 70.9, "unit": "µg/mL"},
      {"measurement": "calcein leakage", "setting": "[3]", "value": 74, "unit": "%"},
      {"measurement": "calcein leakage", "setting": "[4]", "value": "above 60%"}
    ]},
    {"substance": "Ac-WLKWLAKKKKWRK-NH2 [Peptide W5K05]", "values": [
      {"measurement": "calcein leakage", "setting": "[3]", "value": 69, "unit": "%"}
    ]},
    {"substance": "Ac-WRKWLKWLAKKKK-NH2 [Peptide W5K02]", "values": [
      {"measurement": "lysis of RBCs (hemolysis)", "setting": "[1]; [5]", "value": "~34", "unit": "%"},
      {"measurement": "HC10 (concentration that induced 10% hemolysis of human red blood cells)", "setting": "[1]; [6]", "value": 16.7, "unit": "µg/mL"},
      {"measurement": "calcein leakage", "setting": "[3]", "value": 78, "unit": "%"},
      {"measurement": "calcein leakage", "setting": "[4]", "value": "above 60%"}
    ]}
  ]
}
